Patent US20210346329A1, “TCA CYCLE INTERMEDIATES AND METHODS OF USE THEREOF” (IMBRIA PHARMACEUTICALS, INC., priority 2018, published 2021)

Columns and labels:
[1] = Plasma concentrations of radioactive material; assay type: in vivo, CD® rats; settings: IV 10 mg/kg
Procedure: (§1) The plasma-time course, routes and rates of excretion, and tissue distribution of radioactivity following a single oral dose of ^14C-labeled citrate or single oral dose of ^14C-labeled succinate were analyzed in rats.
Formulations were prepared on the day prior to dosing.
(§2) CD® rats were obtained from Charles River Laboratories. Animals were 9-11 weeks in age at beginning of study.
(§3) Animals given intravenous ^14C-succinate were not kept in a fasting state. ^14C-succinate was administered by tail vein injection.
Blood and plasma were collected by cardiac puncture for terminal collection at 0.5, 1, 2, 4, 8, and 24 hours post-dose. Blood was stored on an ice block or wet ice until centrifugation to obtain plasma. Triplicate aliquots were weighed, mixed with scintillation cocktail, and counted by LSC.
Samples were analyzed for radioactivity by liquid scintillation counting (LSC) for at least 5 minutes or 100,000 cumulative counts. Samples were analyzed in triplicate.

[2] = Tissue distribution of radioactivity (whole-body sections, phosphor imaging, image densitometry); settings: IV 10 mg/kg
Procedure: as §1, §2, §3
At 0.5, 1, 2, 4, 8, and 24 hours post-dose, after terminal blood collections, euthanized animals were frozen in a hexane/dry ice bath and embedded in a 5% carboxymethylcellulose matrix according to MPI Research SOP IMG-23.
Sections of approximately 30 μm thickness were taken in the sagittal plane. Appropriate sections selected at various levels of interest in the block were collected to encompass the following tissues, organs, and biological fluids, where possible: adrenal gland, bladder and contents (urine), blood (cardiac), bone, bone marrow, brain, epididymis, eye, fat (brown), fat (white), heart, kidney, large intestine/cecum and contents, liver, lung, muscle, pancreas, prostate/uterus, salivary glands, skin, small intestine and contents, spleen, stomach and contents, testes/ovaries, thymus, thyroid, and mesenteric lymph nodes.
Quantification, relative to the calibration standards, was performed by image densitometry using MCID™ image analysis software according to MPI Research SOP IMG-24. A standard curve was constructed from the integrated response (MDC/mm^2) and the nominal concentrations of the [^14C]calibration standards. The concentrations of radioactivity were expressed as μCi/g and converted to μg or ng equivalents of [^14C]Test Article per gram sample (ng-eq/g or μg-eq/g) using the specific activity of administered [^14C]Test Article dose formulation. A lower limit of quantification (LLOQ) was applied to the data. The LLOQ was determined using the radioactive concentration of the lowest calibration standard used to generate a calibration curve divided by the specific activity of the dose formulation (μCi/mg). Artifacts, such as those produced by dislodged contents of the alimentary canal, were excluded from analysis during image analysis.

O=C(O)CCC(=O)O [^14C-succinate]
Plasma concentration of radioactive material ([1]; 30 min, Subject 1001): 2809 ng-equivalents/g | Plasma concentration of radioactive material ([1]; 1 hr, Subject 1002): 2996 ng-equivalents/g | Plasma concentration of radioactive material ([1]; 2 hr, Subject 1003): 1466 ng-equivalents/g | Plasma concentration of radioactive material ([1]; 4 hr, Subject 1004): 1158 ng-equivalents/g | Plasma concentration of radioactive material ([1]; 8 hr, Subject 1005): 813 ng-equivalents/g | Plasma concentration of radioactive material ([1]; 24 hr, Subject 1006): 511 ng-equivalents/g | Radioactivity in tissue ([2]; Bone marrow, 0.5 Hour): 1314 ng Equivalents test article/g | Radioactivity in tissue ([2]; Bone marrow, 1 Hour): 1750 ng Equivalents test article/g | Radioactivity in tissue ([2]; Bone marrow, 2 Hours): 1398 ng Equivalents test article/g | Radioactivity in tissue ([2]; Bone marrow, 4 Hours): 1419 ng Equivalents test article/g | Radioactivity in tissue ([2]; Bone marrow, 8 Hours): 1019 ng Equivalents test article/g | Radioactivity in tissue ([2]; Bone marrow, 24 Hours): 769 ng Equivalents test article/g | Radioactivity in tissue ([2]; Bone, 0.5 Hour): 3128 ng Equivalents test article/g | Radioactivity in tissue ([2]; Bone, 1 Hour): 3200 ng Equivalents test article/g | Radioactivity in tissue ([2]; Bone, 2 Hours): 1989 ng Equivalents test article/g | Radioactivity in tissue ([2]; Bone, 4 Hours): 2330 ng Equivalents test article/g | Radioactivity in tissue ([2]; Bone, 8 Hours): 2042 ng Equivalents test article/g | Radioactivity in tissue ([2]; Bone, 24 Hours): 1322 ng Equivalents test article/g | Radioactivity in tissue ([2]; Cecum contents, 0.5 Hour): 540 ng Equivalents test article/g | Radioactivity in tissue ([2]; Cecum contents, 1 Hour): 882 ng Equivalents test article/g | Radioactivity in tissue ([2]; Cecum contents, 2 Hours): 757 ng Equivalents test article/g | Radioactivity in tissue ([2]; Cecum contents, 4 Hours): 750 ng Equivalents test article/g | Radioactivity in tissue ([2]; Cecum contents, 8 Hours): 806 ng Equivalents test article/g | Radioactivity in tissue ([2]; Cecum contents, 24 Hours): BLQ (BLQ: Below limit of quantitation (<320 ng equivalents test article/g).) | Radioactivity in tissue ([2]; Cecum, 0.5 Hour): BLQ (BLQ: Below limit of quantitation (<320 ng equivalents test article/g).) | Radioactivity in tissue ([2]; Cecum, 1 Hour): BLQ (BLQ: Below limit of quantitation (<320 ng equivalents test article/g).) | Radioactivity in tissue ([2]; Cecum, 2 Hours): BLQ (BLQ: Below limit of quantitation (<320 ng equivalents test article/g).) | Radioactivity in tissue ([2]; Cecum, 4 Hours): BLQ (BLQ: Below limit of quantitation (<320 ng equivalents test article/g).) | Radioactivity in tissue ([2]; Cecum, 8 Hours): BLQ (BLQ: Below limit of quantitation (<320 ng equivalents test article/g).) | Radioactivity in tissue ([2]; Cecum, 24 Hours): BLQ (BLQ: Below limit of quantitation (<320 ng equivalents test article/g).) | Radioactivity in tissue ([2]; Cerebellum, 0.5 Hour): 709 ng Equivalents test article/g | Radioactivity in tissue ([2]; Cerebellum, 1 Hour): 847 ng Equivalents test article/g | Radioactivity in tissue ([2]; Cerebellum, 2 Hours): 529 ng Equivalents test article/g | Radioactivity in tissue ([2]; Cerebellum, 4 Hours): 503 ng Equivalents test article/g | Radioactivity in tissue ([2]; Cerebellum, 8 Hours): BLQ (BLQ: Below limit of quantitation (<320 ng equivalents test article/g).) | Radioactivity in tissue ([2]; Cerebellum, 24 Hours): BLQ (BLQ: Below limit of quantitation (<320 ng equivalents test article/g).) | Radioactivity in tissue ([2]; Cerebrum, 0.5 Hour): 596 ng Equivalents test article/g | Radioactivity in tissue ([2]; Cerebrum, 1 Hour): 853 ng Equivalents test article/g | Radioactivity in tissue ([2]; Cerebrum, 2 Hours): 477 ng Equivalents test article/g | Radioactivity in tissue ([2]; Cerebrum, 4 Hours): 543 ng Equivalents test article/g | Radioactivity in tissue ([2]; Cerebrum, 8 Hours): 348 ng Equivalents test article/g | Radioactivity in tissue ([2]; Cerebrum, 24 Hours): BLQ (BLQ: Below limit of quantitation (<320 ng equivalents test article/g).) | Radioactivity in tissue ([2]; Epididymis, 0.5 Hour): 699 ng Equivalents test article/g | Radioactivity in tissue ([2]; Epididymis, 1 Hour): 785 ng Equivalents test article/g | Radioactivity in tissue ([2]; Epididymis, 2 Hours): 442 ng Equivalents test article/g | Radioactivity in tissue ([2]; Epididymis, 4 Hours): BLQ (BLQ: Below limit of quantitation (<320 ng equivalents test article/g).) | Radioactivity in tissue ([2]; Epididymis, 8 Hours): BLQ (BLQ: Below limit of quantitation (<320 ng equivalents test article/g).) | Radioactivity in tissue ([2]; Epididymis, 24 Hours): BLQ (BLQ: Below limit of quantitation (<320 ng equivalents test article/g).) | Radioactivity in tissue ([2]; Eye, 0.5 Hour): 569 ng Equivalents test article/g | Radioactivity in tissue ([2]; Eye, 1 Hour): 584 ng Equivalents test article/g | Radioactivity in tissue ([2]; Eye, 2 Hours): 371 ng Equivalents test article/g | Radioactivity in tissue ([2]; Eye, 4 Hours): 413 ng Equivalents test article/g | Radioactivity in tissue ([2]; Eye, 8 Hours): BLQ (BLQ: Below limit of quantitation (<320 ng equivalents test article/g).)
